Results on 3 molecules are retold here after PMC12005787, “Synthetic Lethality of SHP2 and XIAP Suppresses Proliferation and Metastasis in KRAS‐mutant Nonsmall Cell Lung Cancer” (Advanced Science, 2025).

Bounds are passed on as bounds.

In assay [1] the target is T1, HePTP (Homo sapiens, UniProt P35236).
T1 construct: His; made in house; host or cells: E. coli
T1 sequence (P35236 1-360): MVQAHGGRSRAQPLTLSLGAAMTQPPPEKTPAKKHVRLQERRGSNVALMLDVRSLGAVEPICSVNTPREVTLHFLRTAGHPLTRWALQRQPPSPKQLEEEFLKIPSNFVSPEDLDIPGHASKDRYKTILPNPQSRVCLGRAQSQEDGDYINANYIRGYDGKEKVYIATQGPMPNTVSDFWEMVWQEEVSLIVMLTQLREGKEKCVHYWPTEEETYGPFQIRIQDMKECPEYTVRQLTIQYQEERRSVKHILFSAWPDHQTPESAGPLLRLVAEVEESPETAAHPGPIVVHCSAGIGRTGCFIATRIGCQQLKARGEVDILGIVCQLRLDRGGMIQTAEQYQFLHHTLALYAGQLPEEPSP
As to the kind of experiment: PTPs activity assay (DiFMUP). The format is biochemical. The method, then:
(§1) Catalytic activity screening methods for PTPs using candidate compounds were performed as previously described.^[ [77] ^] In brief, soluble fusion PTP proteins, His‐ΔSHP2, encompassing the peptide from amino acids 205–593 retaining PTP activity, His‐ΔSHP2^K325A, His‐ΔSHP1, encompassing the peptide from amino acids 202–595 retaining PTP activity, His‐PTP1B, His‐HePTP, His‐VHR, and His‐TCPTP were cloned, expressed, and purified in E. coli. After determining protein concentration using bicinchoninic acid (BCA) assay kit, 1 µg fusion protein, 10 µM library compound were added in 100 µL reaction mixture (55 mM 4‐(2‐hydroxyethyl)‐1‐piperazineethanesulfonic acid [HEPES], 100 mM sodium chloride [NaCl], 0.5 mM ethylenediaminetetraacetic acid [EDTA], 1 mM dithiothreitol [DTT], 0.01% Triton X‐100, 0.002% bovine serum albumin [BSA], and 0.1% dimethyl sulfoxide [DMSO]) and incubated at 37 °C for 30 min in the dark, with Na3VO4 as positive control. The detection substrate DiFMUP (50 µM) was promptly added to each reaction and functioned at 37 °C for 30 min in the dark. The fluorescence intensity was then measured using Multimode Plate Reader (λa = 358 nm, λe = 455 nm, PerkinElmer, USA).

Assay [2] deals with T2, VHR (Homo sapiens, UniProt P51452).
T2 construct: His; made in house; host or cells: E. coli
T2 sequence (P51452 whole entry): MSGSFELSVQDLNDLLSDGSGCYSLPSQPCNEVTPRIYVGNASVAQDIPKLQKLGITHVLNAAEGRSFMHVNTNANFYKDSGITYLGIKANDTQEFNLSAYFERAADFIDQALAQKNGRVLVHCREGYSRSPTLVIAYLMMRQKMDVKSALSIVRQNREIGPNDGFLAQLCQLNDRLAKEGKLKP
As to the kind of experiment: PTPs activity assay (DiFMUP). The class given is biochemical. The procedure:
as §1

Assay [3] addresses T3, ΔSHP1 (Homo sapiens, UniProt P29350).
T3 construct: His‐ΔSHP1, encompassing the peptide from amino acids 202–595 retaining PTP activity; His; made in house; host or cells: E. coli
The assay can be described thus: PTPs activity assay (DiFMUP). The format is biochemical. The procedure: as §1

Assay [4] deals with NCI‐H2122 and A549 cells. As to the kind of experiment: Cell scratch and cell migration assays. The class given is cell-based, human. To be noted: 24 h. The procedure:
supplies are listed in Supplementary Table S5. The relevant reagents for protein extraction from Escherichia coli are listed in Supplementary Table S6. Inhibitory effects of embelin on KRAS-mutant and wild-type cells are listed in Supplementary Table S7.
For the adherent cell viability assay, cells in the logarithmic growth phase were seeded in 96-well culture plates at a density of 5×103 well-1 and incubated overnight. Diluted compounds or DMSO were added, or specific treatments were incubated at 37 °C and 5% CO2 for 24 h or 48 h. Cell viability was determined using CCK-8 or CellLightTM Cell Viability Assay Kit, according to the manufacturer's protocol. The luminescence signals of the treated samples were normalized to those of the DMSO group.
For spherical cell viability assays, cells in the logarithmic growth phase were inoculated ata density of 4×10^3 well-1 into 96-well spherical cell microplates and incubated at 37 °C, 5% CO2 for 24 h or 48 h. Cell viability was measured using the CellTiter-Glo® Luminescent Cell Viability 3D Cell Viability Assay Kit, according to the manufacturer’s protocol. […]
Finally, the staining results were recorded using an inverted microscope. […]
NCI-H2122 and A549 cells were seeded in six-well plates. […] Finally, the scratch was photographed using an inverted microscope and the wound healing status was recorded. […]

T3 sequence (P29350 202-595, stated change not applied): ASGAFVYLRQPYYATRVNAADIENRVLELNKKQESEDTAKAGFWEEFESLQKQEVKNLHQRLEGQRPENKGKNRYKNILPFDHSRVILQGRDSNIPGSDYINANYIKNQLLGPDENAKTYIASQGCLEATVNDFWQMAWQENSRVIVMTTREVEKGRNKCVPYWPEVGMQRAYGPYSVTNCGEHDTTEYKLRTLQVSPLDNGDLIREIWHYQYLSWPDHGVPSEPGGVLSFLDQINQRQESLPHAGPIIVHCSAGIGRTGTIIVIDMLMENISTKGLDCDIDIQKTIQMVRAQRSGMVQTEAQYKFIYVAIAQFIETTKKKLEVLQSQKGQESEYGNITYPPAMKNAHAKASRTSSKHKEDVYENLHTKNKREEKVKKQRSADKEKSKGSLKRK

Regarding `CCCCCCCCCCCC1=C(O)C(=O)C=C(O)C1=O` [Embelin], the IC50 in assay [1], in assay [2] and in assay [3] was > 200 µM each time. Further, the “effect on cell mobility / migration” value in assay [4] is “potently inhibit the migration capabilities”.

As for `O=C1Nc2ccc(I)cc2/C1=C/c1cc(Br)c(O)c(Br)c1` [S2872, GW5074], the IC50 in assay [1] stood at 472 µM; in assay [2] it was 131 µM; in assay [3] it was 246 µM.

With `CC1(N)CCN(c2cnc(-c3cccc(Cl)c3Cl)c(N)n2)CC1` [SHP099], in assay [4], the “effect on cell mobility / migration” value was “poor effect on cell mobility”.

A word on the IC50: it is the point on the concentration scale where inhibition reaches its midpoint. Read a low IC50 as greater potency.
